Assay results reported in BindingDB's records for doi:10.7270/Q21V5CDC (Burnham Center For Chemical Genomics, 2010).
“And” between values parts separate entries of the source, which are not always exact repeats. Equal entries are not always repeated.

Target: T1, Amyloid-beta A4 precursor protein-binding family A member 1 (Rattus norvegicus, UniProt O35430)
T1 sequence (O35430 whole entry): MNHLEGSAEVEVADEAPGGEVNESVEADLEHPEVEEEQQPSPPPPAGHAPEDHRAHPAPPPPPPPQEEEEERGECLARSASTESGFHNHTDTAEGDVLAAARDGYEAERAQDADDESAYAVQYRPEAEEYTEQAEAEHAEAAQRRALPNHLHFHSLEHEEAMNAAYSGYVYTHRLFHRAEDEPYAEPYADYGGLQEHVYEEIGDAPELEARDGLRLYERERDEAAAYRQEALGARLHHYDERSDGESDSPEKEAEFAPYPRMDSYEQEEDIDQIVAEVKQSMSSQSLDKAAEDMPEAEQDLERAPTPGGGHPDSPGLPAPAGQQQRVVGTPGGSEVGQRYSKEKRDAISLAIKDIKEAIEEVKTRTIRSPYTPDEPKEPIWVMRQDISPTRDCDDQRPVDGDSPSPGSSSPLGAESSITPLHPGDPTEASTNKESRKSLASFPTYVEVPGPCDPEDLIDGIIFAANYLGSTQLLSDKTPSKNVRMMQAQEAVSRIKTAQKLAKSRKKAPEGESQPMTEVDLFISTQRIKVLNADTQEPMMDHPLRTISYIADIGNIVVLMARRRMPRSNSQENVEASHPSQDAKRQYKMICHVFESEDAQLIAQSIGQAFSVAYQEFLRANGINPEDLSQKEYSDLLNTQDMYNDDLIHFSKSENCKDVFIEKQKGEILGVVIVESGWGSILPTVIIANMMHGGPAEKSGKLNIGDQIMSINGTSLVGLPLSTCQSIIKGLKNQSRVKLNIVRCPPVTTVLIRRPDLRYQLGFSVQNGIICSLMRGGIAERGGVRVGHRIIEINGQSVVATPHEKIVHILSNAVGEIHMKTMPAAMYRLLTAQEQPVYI
Experiment: disruptors of Mint-PDZ/N-type channel peptide interaction – biochemical, HTRF, SAR follow-up (AID 2489)

Row | IC50 | Compound
1 | 16.2 µM | CCCCc1ccc(CC2=C(C(=O)OCC)C(=O)c3ccccc3C2=O)cc1
2 | > 56.8 µM | CC12C=CC(C)(O1)c1c2c(O)n(-c2ccc3c(c2)OCO3)c1O
3 | 12 µM and 18.3 µM | CC(=O)Oc1cccc(-n2c(O)c3c(c2O)C2(C)C=CC3(C)O2)c1
4 | > 56.8 µM | CC12C=CC(C)(O1)c1c2c(O)n(-c2ccc(Cl)cc2)c1O
5 | 11.5 µM | Cc1ccc(-n2c(O)c3c(c2O)C2(C)C=CC3(C)O2)cc1
6 | 10.7 µM | CC12C=CC(C)(O1)c1c2c(O)n(-c2ccc(F)cc2)c1O [2-(4-fluorophenyl)-4,7-dimethyl-3a,7a-dihydro-octahydro-1H-4,7-epoxyisoindole-1,3-dione]
7 | 27.6 µM | Cc1cccc(-n2c(O)c3c(c2O)C2(C)C=CC3(C)O2)c1 [4,7-dimethyl-2-(3-methylphenyl)-3a,7a-dihydro-octahydro-1H-4,7-epoxyisoindole-1,3-dione]
8 | 11.7 µM | CC12C=CC(C)(O1)c1c2c(O)n(-c2ccccc2)c1O [4,7-dimethyl-2-phenyl-3a,7a-dihydro-octahydro-1H-4,7-epoxyisoindole-1,3-dione]
9 | 7.82 µM | CC(=O)Oc1ccc(-n2c(O)c3c(c2O)C2(C)C=CC3(C)O2)cc1 [MLS000107813]
10 | > 56.8 µM | COC(=O)c1cc(-n2c(O)c3c(c2O)C2(C)C=CC3(C)O2)ccc1Cl [MLS000107828]
11 | 7.19 µM | CCCc1ccc(CC2=C(C(=O)OCC)C(=O)c3ccccc3C2=O)cc1 [MLS000571357]
12 | > 56.8 µM | CC(=O)Oc1ccc(-n2c(O)c3c(c2O)C2C=CC3O2)cc1 [[4-(1,3-dioxo-3a,4,7,7a-tetrahydro-octahydro-1H-4,7-epoxyisoindol-2-yl)phenyl] acetate]
